The test system of experiment [1] is transglutaminase (TGase). Description: Measurement of TG (TGase inhibitory activity, monodansyl cadaverine / N,N-dimethylcasein fluorescence, FDSS 3000). Format: biochemical. In outline:
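Compound (1 μL of 10 mM stock) added to 0.1 mL reaction: 100 mM HEPES-NaOH pH 7.5, 1 mM CaCl2, 20 μM monodansyl cadaverine, 0.05 mg/mL N,N-dimethylcasein, 5 μg/mL TGase. Rate of fluorescence change at 340 nm measured; DMSO control set to 100; TG50 is the concentration halving activity.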

Experiment [2] relates to Truncated N-terminal huntington 150 Q-EGFP-Neuron 2a cells. The experiment is described as follows: Measurement of x-Fold (polyglutamine aggregation inhibitory activity). The format is cell-based. As to the method:
In the present invention, the polyglutamine aggregation inhibitory activity (x-Fold) can be measured, for example, by the method described in the Example.
The number of the aggregated cells, and the total number of cells were counted by Array Scan V T1 (manufactured by Cellomics, Pittuburg, USA), and the ratio of the aggregated cells to the total number of cells was determined (x-Fold). […]

Where [3] appears, read: TGase activity with compound (10 mM, 1 μL in 0.1 ml enzyme reaction solution), DMSO control taken as 100.
Where [4] appears, read: ratio of aggregated cells to total number of cells, compound 20 μM, 20 hr, almost 1 without compound, smaller = stronger inhibition.
The mark [5] stands for this setting: TGase inhibitory activity value, Table 1.
Where [6] appears, read: polyglutamine aggregation inhibitory activity, Table 1.

The results in this text go back to patent US8853424B2 (Japan Science and Technology Agency, priority 2008, dated 2014).

Take `Cc1ccc(B(O)c2ccc(Oc3ccc(B(O)c4ccc(C)c(Cl)c4)cc3)cc2)cc1Cl` [Example 201, 4,4′-di((3-chloro-4-methylphenyl 2-hydroxyboryl)phenyl)ether]: the “TGase activity remaining (% of DMSO control = 100)” value in experiment [1] (setting [3]) is reported as 99. In addition, the x-Fold in experiment [2] (setting [4]) is reported as 0.57.

Consider `c1ccc(B(OCc2ccccn2)c2cccc3ccccc23)cc1` [Example 202, phenyl naphthyl 2-pyridylmethylborinate], for which the “TGase activity remaining (% of DMSO control = 100)” value in experiment [1] (setting [3]) and in experiment [1] (setting [5]) was 91 in each case. Moreover, the x-Fold in experiment [2] (setting [6]) and in experiment [2] (setting [4]) was 0.94 throughout.

Turning to `CN(C)CCOB(c1ccccc1)c1cccc2ccccc12` [Example 203, phenyl naphthyl dimethylaminoethylborinate], the “TGase activity remaining (% of DMSO control = 100)” value in experiment [1] (setting [3]) and in experiment [1] (setting [5]) was 97 in each case. Also, the x-Fold in experiment [2] (setting [6]) and in experiment [2] (setting [4]) was 0.97 in each case.

With `c1ccc(CNCCOB(c2ccccc2)c2cccc3ccccc23)cc1` [Example 204, phenyl naphthyl benzylaminoethylborinate], the “TGase activity remaining (% of DMSO control = 100)” value in experiment [1] (setting [3]) and in experiment [1] (setting [5]) was 61 in each case. For the same molecule, the x-Fold in experiment [2] (setting [6]) and in experiment [2] (setting [4]) was 0.79 each time.

As for `NC(COB(c1ccccc1)c1ccc(COCc2ccc(B(OCC(N)Cc3ccccc3)c3ccccc3)cc2)cc1)Cc1ccccc1` (centres unmarked) [Example 205, bis(4,4′-(phenyl 2-amino-2-benzylethoxyboryl)benzyl)ether], the “TGase activity remaining (% of DMSO control = 100)” value in experiment [1] (setting [3]) and in experiment [1] (setting [5]) was 47 each time. Besides, the x-Fold in experiment [2] (setting [6]) and in experiment [2] (setting [4]) was 0.80 throughout.

`CN(C)CCOB(c1ccccc1)c1cccc(COCc2cccc(B(OCCN(C)C)c3ccccc3)c2)c1` [Example 206, bis(3,3′-(phenyldimethylaminoethoxyboryl)benzyl)ether]: the “TGase activity remaining (% of DMSO control = 100)” value in experiment [1] (setting [3]) came to 34; in experiment [1] (TGase inhibitory activity value, Table 1, listed as 3107) it was 34. In addition, the x-Fold was 1.14 in experiment [2] (polyglutamine aggregation inhibitory activity, Table 1, listed as 3107) and 1.14 in experiment [2] (setting [4]).

Consider `Cc1ccc(B(OC(CN)c2ccccc2)c2ccc(C)c(Cl)c2)cc1Cl` (centres unmarked) [Example 209, di(3-chloro-4-methylphenyl)1-phenyl 2-aminoethylborinate], for which the “TGase activity remaining (% of DMSO control = 100)” value in experiment [1] (setting [3]) and in experiment [1] (setting [5]) was 1 throughout. Besides, the x-Fold in experiment [2] (setting [6]) and in experiment [2] (setting [4]) was 0.98 in each case.

In the case of `c1ccc(B(OB(c2ccccc2)c2ccccc2)c2ccccc2)cc1` [Example 217, diphenylborinic acid anhydride], the “TGase activity remaining (% of DMSO control = 100)” value in experiment [1] (setting [3]) and in experiment [1] (setting [5]) was 118 in each case. In addition, the x-Fold in experiment [2] (setting [6]) and in experiment [2] (setting [4]) was 0.94 each time.

Consider `O=C(OB(c1ccccc1)c1ccccc1)c1ccccn1` [Example 218, diphenyl(picolinate-O,N)borane], for which the “TGase activity remaining (% of DMSO control = 100)” value in experiment [1] (setting [3]) and in experiment [1] (setting [5]) was 90 throughout. In addition, the x-Fold in experiment [2] (setting [6]) and in experiment [2] (setting [4]) was 0.97 in each case.

For `Nc1ccccc1C(=O)OB(c1ccccc1)c1ccccc1` [Example 219, diphenyl(2-aminophenyl carboxylate-O,N)borane], the “TGase activity remaining (% of DMSO control = 100)” value in experiment [1] (setting [3]) and in experiment [1] (setting [5]) was 91 throughout. Moreover, the x-Fold in experiment [2] (setting [6]) and in experiment [2] (setting [4]) was 0.88 each time.

As to `Cc1ccc(B(OC(=O)c2ccccn2)c2ccc(C)c(Cl)c2)cc1Cl` [Example 221, di(3-chloro-4-methylphenyl)(2-pyridine carboxylate-O,N)borane], the “TGase activity remaining (% of DMSO control = 100)” value in experiment [1] (setting [3]) is 73. For the same molecule, the x-Fold in experiment [2] (setting [4]) was found to be 0.94.

On to `NC(c1ccccc1)C(OB(c1ccccc1)c1ccccc1)c1ccccc1` (centres unmarked) [Example 224, diphenyl 1-(2-aminobenzyl) 1-phenylmethylborinate], for which the “TGase activity remaining (% of DMSO control = 100)” value in experiment [1] (setting [3]) and in experiment [1] (setting [5]) was 112 in each case. Besides, the x-Fold in experiment [2] (setting [6]) and in experiment [2] (setting [4]) was 0.89 in each case.

As to `CCCCC(N)C(=O)OB(c1ccccc1)c1ccccc1` (centres unmarked) [Example 226, diphenyl(2-aminohexanecarboxylate-O,N)borane], the “TGase activity remaining (% of DMSO control = 100)” value in experiment [1] (setting [3]) and in experiment [1] (setting [5]) was 97 each time. Besides, the x-Fold in experiment [2] (setting [6]) and in experiment [2] (setting [4]) was 0.94 throughout.

On to `CCCCC(N)C(=O)OB(c1ccc(C)c(Cl)c1)c1ccc(C)c(Cl)c1` (centres unmarked) [Example 227, di(3-chloro-4-methylphenyl)(norloysinate-O,N)borane], for which the “TGase activity remaining (% of DMSO control = 100)” value amounted to 110 in experiment [1] (setting [3]) and 110 in experiment [1] (TGase inhibitory activity value, Table 1, listed as 4130). Moreover, the x-Fold is 0.99 in experiment [2] (polyglutamine aggregation inhibitory activity, Table 1, listed as 4130) and 0.99 in experiment [2] (setting [4]).

Consider `CCC(N)COB(c1ccccc1)c1ccccc1` (centres unmarked) [Example 228, diphenyl 2-aminobutylborinate], for which the “TGase activity remaining (% of DMSO control = 100)” value in experiment [1] (setting [3]) and in experiment [1] (setting [5]) was 99 throughout. Besides, the x-Fold in experiment [2] (setting [6]) and in experiment [2] (setting [4]) was 0.98 in each case.

Consider `OB(c1ccc(Cl)c(F)c1)c1ccc(Cl)c(F)c1` [Example 231, di(3-fluoro-4-chlorophenyl)borinic acid], for which the “TGase activity remaining (% of DMSO control = 100)” value in experiment [1] (setting [3]) turned out to be 94; in experiment [1] (TGase inhibitory activity value, Table 1, listed as 4140), 94. The x-Fold in experiment [2] (polyglutamine aggregation inhibitory activity, Table 1, listed as 4140) worked out at 1.01; in experiment [2] (setting [4]) it was 1.01.

For `CN(C)CCOB(c1ccc(C(F)(F)F)cc1)c1ccc(C(F)(F)F)cc1` [Example 233], the “TGase activity remaining (% of DMSO control = 100)” value in experiment [1] (setting [3]) was 112; in experiment [1] (TGase inhibitory activity value, Table 1, listed as 4142) it was 112. For the same molecule, the x-Fold in experiment [2] (polyglutamine aggregation inhibitory activity, Table 1, listed as 4142) was determined as 1.12; in experiment [2] (setting [4]) it was 1.12.

As to `NCC(CN)OB(c1ccc(Cl)c(F)c1)c1ccc(Cl)c(F)c1` [Example 235], the “TGase activity remaining (% of DMSO control = 100)” value in experiment [1] (setting [3]) and in experiment [1] (setting [5]) was 80 throughout. Moreover, the x-Fold in experiment [2] (setting [6]) and in experiment [2] (setting [4]) was 1.03 throughout.

With `CC(C)(N)COB(c1ccc(Cl)c(F)c1)c1ccc(Cl)c(F)c1` [Example 236, di(4-chloro-3-fluorophenyl) 2-amino-2-methyl-propyl-borinate], the “TGase activity remaining (% of DMSO control = 100)” value in experiment [1] (setting [3]) and in experiment [1] (setting [5]) was 87 each time. Besides, the x-Fold in experiment [2] (setting [6]) and in experiment [2] (setting [4]) was 1.10 throughout.

Consider `Fc1cc(B(OCCNc2ccccc2)c2ccc(Cl)c(F)c2)ccc1Cl` [Example 237, di(4-chloro-3-fluorophenyl) 2-phenylaminoethyl borinate], for which the “TGase activity remaining (% of DMSO control = 100)” value in experiment [1] (setting [3]) and in experiment [1] (setting [5]) was 88 throughout. Also, the x-Fold in experiment [2] (setting [6]) and in experiment [2] (setting [4]) was 1.15 in each case.

For `CC(O)C(N)COB(c1ccc(Cl)c(F)c1)c1ccc(Cl)c(F)c1` (centres unmarked) [Example 238, di(4-chloro-3-fluorophenyl) 2-amino-3-hydroxybutyl borinate], the “TGase activity remaining (% of DMSO control = 100)” value in experiment [1] (setting [3]) and in experiment [1] (setting [5]) was 87 throughout. Moreover, the x-Fold in experiment [2] (setting [6]) and in experiment [2] (setting [4]) was 1.07 throughout.
